The values below are quoted from earlier work in patent US6682761B2, “Water-insoluble drug particle process” (RTP Pharma, Inc., priority 2000, dated 2004).

For the series the following is noted: in vivo.

For the compound `CC(C)(Oc1ccc(C(=O)c2ccc(Cl)cc2)cc1)C(=O)O` [Fenofibric acid], the plasma half-life entry was “about 20 hours”.
